Reference: ChEMBL document CHEMBL1148587, “Imidazo[1,2-a]pyrimidines as functionally selective and orally bioavailable GABA(A)alpha2/alpha3 binding site agonists for the treatment of anxiety disorders” (J Med Chem, 2006)
Calls of active or inactive are those of the source. No cut-off for these calls is given here.

Key:
[1] = molecular target: GABA-A receptor; alpha-1/beta-3/gamma-2 (Homo sapiens) (UniProt P14867+P18507+P28472); assay: Efficacy against human recombinant GABAA alpha-1-beta-3-gamma-2 expressed in L(tk-) cells by whole cell patch clamp method relative to chlordiazepoxide; format: functional, cell-based
[2] = molecular target: T1, GABA-A receptor; alpha-2/beta-3/gamma-2 (Homo sapiens) (UniProt P18507+P28472+P47869); assay: Efficacy against human recombinant GABAA alpha-2-beta-3-gamma-2 expressed in L(tk-) cells by whole cell patch clamp method relative to chlordiazepoxide; format: functional, cell-based
[3] = molecular target: T2, GABA-A receptor; alpha-3/beta-3/gamma-2 (Homo sapiens) (UniProt P18507+P28472+P34903); assay: Efficacy against human recombinant GABAA alpha-3-beta-3-gamma-2 expressed in L(tk-) cells by whole cell patch clamp method relative to chlordiazepoxide; format: functional, cell-based
[4] = molecular target: GABA-A receptor; alpha-5/beta-3/gamma-2 (Homo sapiens) (UniProt P18507+P28472+P31644); assay: Efficacy against human recombinant GABAA alpha-5-beta-3-gamma-2 expressed in L(tk-) cells by whole cell patch clamp method relative to chlordiazepoxide; format: functional, cell-based
[5] = molecular target: T1, GABA-A receptor; alpha-2/beta-3/gamma-2 (Homo sapiens); assay: Efficacy against human recombinant GABAA alpha-2-beta-3-gamma-2 expressed in L(tk-) cells by whole cell patch clamp method; format: cell-based
[6] = Oral bioavailability in rat; format: ADME, organism-based; details: in vivo
[7] = Half life in dog; format: ADME, organism-based, Canis lupus familiaris; details: in vivo
[8] = molecular target: T3, GABA-A receptor; alpha-2/beta-3/gamma-2 (Homo sapiens, UniProt P18507+P28472+P47869); assay: Displacement of [3H]-Ro15-1788 from human recombinant GABAA alpha2 in combination with beta3gamma2 expressed in L(tk-) cells; format: cell-based
T3 sequence (P18507 whole entry): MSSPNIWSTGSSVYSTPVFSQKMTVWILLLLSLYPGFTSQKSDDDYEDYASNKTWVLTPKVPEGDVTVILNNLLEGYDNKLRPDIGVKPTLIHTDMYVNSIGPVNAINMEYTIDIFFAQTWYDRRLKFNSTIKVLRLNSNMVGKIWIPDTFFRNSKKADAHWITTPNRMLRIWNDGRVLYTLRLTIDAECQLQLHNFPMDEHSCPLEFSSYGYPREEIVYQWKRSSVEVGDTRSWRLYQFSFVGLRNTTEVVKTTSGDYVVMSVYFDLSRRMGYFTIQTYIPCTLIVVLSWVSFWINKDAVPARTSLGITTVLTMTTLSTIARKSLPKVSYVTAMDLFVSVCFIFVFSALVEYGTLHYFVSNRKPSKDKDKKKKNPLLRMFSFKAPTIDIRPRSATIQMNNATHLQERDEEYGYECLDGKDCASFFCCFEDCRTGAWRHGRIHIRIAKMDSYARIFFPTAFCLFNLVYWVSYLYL
T3 sequence (P28472 whole entry): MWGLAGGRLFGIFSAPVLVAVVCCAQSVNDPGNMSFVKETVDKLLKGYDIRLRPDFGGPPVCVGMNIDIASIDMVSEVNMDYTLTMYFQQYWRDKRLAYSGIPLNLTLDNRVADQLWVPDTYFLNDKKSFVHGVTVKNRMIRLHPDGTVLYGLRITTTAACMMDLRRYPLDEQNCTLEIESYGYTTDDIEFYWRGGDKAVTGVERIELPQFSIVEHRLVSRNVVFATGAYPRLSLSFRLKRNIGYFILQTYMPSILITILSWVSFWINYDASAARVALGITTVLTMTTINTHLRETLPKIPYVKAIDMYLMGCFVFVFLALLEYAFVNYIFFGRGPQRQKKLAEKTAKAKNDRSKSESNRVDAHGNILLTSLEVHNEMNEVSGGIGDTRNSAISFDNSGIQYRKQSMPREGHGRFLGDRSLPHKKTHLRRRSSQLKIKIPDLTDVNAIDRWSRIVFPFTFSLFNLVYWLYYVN
T3 sequence (P47869 whole entry): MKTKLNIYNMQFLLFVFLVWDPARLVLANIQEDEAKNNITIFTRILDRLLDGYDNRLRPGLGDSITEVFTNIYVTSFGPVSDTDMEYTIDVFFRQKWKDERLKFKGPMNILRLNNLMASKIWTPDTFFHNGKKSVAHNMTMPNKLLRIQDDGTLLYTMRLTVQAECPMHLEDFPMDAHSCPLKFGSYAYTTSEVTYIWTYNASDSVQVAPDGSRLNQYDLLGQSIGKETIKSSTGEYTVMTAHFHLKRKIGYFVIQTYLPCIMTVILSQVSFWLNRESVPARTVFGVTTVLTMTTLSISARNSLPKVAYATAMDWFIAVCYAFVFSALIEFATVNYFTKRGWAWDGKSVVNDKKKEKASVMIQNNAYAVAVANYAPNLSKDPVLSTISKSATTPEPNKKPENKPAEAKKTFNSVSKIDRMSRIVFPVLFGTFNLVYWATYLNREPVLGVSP

[9] = molecular target: T2, GABA-A receptor; alpha-3/beta-3/gamma-2 (Homo sapiens); assay: Efficacy against human recombinant GABAA alpha3 in combination with beta-3-gamma-2 expressed in L(tk-) cells by whole cell patch clamp method; format: functional, cell-based
[10] = system: Rattus norvegicus; assay: Activity in rat elevated plus maze assay at 3 mg/kg, po; format: functional, organism-based; parameters: dose 3 mg/kg
[11] = system: Squirrel monkey; assay: Anxiolytic activity in squirrel monkey conditioned emotional response test at 3 mg/kg, po; format: functional, organism-based; parameters: dose 3 mg/kg; details: Saimiri sciureus
[12] = molecular target: GABA-A receptor; anion channel (Rattus norvegicus) (UniProt O09028+P15431+P18506+P18508+P19969+P20236+P23574+P23576+P28471+P28473+P30191+P62813+P63079+P63138+Q91ZM7+Q9ES14); assay: (§1) Displacement of [3H]Ro-151788 from central benzodiazepine binding site in rat administered po; format: functional
[13] = molecular target: GABA-A receptor; anion channel; assay: as §1; format: functional
[14] = Oral bioavailability in rhesus monkey; format: ADME, organism-based, Macaca mulatta; details: in vivo
[15] = Plasma clearance in rhesus monkey; format: ADME, organism-based, Macaca mulatta
[16] = Half life in rhesus monkey; format: ADME, organism-based, Macaca mulatta; details: in vivo
[17] = system: Rattus norvegicus; assay: Activity in rat elevated plus maze assay at 1 mg/kg, po; format: functional, organism-based; parameters: dose 1 mg/kg

Compound	Efficacy [1]	Efficacy [2]	Efficacy [3]	Efficacy [4]	Efficacy [5]	bioavailability [6]	half-life [7]	Ki [8]	Efficacy [9]	Activity [10]	Activity [11]	ID50 [12]	EC50 [13]	bioavailability [14]	clearance [15]	half-life [16]	Activity [17]
CC(C)(O)c1ccn2c(-c3ccc(F)c(-c4cccnc4)c3)cnc2n1	5%	39%	54%	18%	48%	77%	0.7 h	3.7 nM	57%	Active	Active	0.84 mg/kg	580 nM				
N#Cc1cc(F)ccc1-c1cc(-c2cnc3nc(C(F)(F)F)ccn23)ccc1F						53%	32 h	1 nM	25%		Active	0.27 mg/kg	19 nM	49%	3 mL/min/kg	13.4 h	Active
